Blank lines part the entries; values can stand above or below the compound they belong to. Activity calls are given as the source filed them.
Experiments:
[1] = biological target: Tyrosine-protein kinase SYK (Homo sapiens, UniProt P43405); type: functional
[2] = biological target: Homeodomain-interacting protein kinase 2 (Homo sapiens, UniProt Q9H2X6); type: functional;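 note: measured within a kinome-wide kinase profiling panel, HIPK2 being one panel member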
[3] = luciferase reporter signal suppression in cells – H4 neuroglioma cells, luminescence, dose response (AID 1990); type: functional, cell-based
[4] = tested on: HeLa; assay: Cytotoxicity counterscreen assay for transcriptional activators of heat shock protein 70 (Hsp70). [Related pubchem assays: 1203, 1252 ]; type: functional; conditions: Homo sapiens;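 note: cells exposed to compound for 16 hours before readout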
[5] = fluconazole-exposed Candida albicans growth modulators – fluorescence, retest, confirmation (AID 2467); type: functional, cell-based
[6] = Trypanosoma cruzi growth suppression in host cells – NIH3T3 host cells, beta-gal luminescence, confirmation (AID 2044); type: functional, cell-based;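 note: intracellular parasites grown in NIH/3T3 mouse fibroblasts as host cells; luminescent beta-galactosidase reporter signal from transgenic T. cruzi replicating inside host cells; inhibitors lower the luminescence signal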
[7] = blockers of HIV-1 ZM109 envelope-driven cell-cell fusion – HeLa effector, CEM target cells, luciferase, cherry-pick, dose response (AID 652058); type: functional, cell-based;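 note: luciferase signal from HIV-1 Env mediated cell-cell fusion of effector and target cells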
[8] = tested on: BJ; assay: cells; type: functional, cell-based; conditions: Homo sapiens
[9] = biological target: T1, Alkaline phosphatase, tissue-nonspecific isozyme (Homo sapiens, UniProt P05186); assay: activation of tissue-nonspecific alkaline phosphatase – biochemical, TNAP isozyme, human IAP uHTS hits, selectivity assay for human IAP activator project, dose response (AID 488886); type: functional;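 note: potency of compounds raising TNAP activity as a selectivity check on IAP activators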
T1 sequence (P05186 whole entry): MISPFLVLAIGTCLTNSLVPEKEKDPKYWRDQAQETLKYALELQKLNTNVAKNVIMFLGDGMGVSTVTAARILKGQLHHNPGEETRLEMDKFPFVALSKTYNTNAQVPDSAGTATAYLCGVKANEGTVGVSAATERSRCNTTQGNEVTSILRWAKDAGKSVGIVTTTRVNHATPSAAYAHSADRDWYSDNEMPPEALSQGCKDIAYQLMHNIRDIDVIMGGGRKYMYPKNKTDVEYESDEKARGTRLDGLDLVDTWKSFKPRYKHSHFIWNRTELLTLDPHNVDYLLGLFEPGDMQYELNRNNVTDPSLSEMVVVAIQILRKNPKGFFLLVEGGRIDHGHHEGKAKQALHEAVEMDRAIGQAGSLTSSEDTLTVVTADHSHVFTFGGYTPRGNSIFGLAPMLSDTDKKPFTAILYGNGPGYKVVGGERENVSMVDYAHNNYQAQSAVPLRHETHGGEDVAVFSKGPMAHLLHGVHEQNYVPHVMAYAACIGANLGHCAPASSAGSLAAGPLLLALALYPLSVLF

[10] = biological target: 72 kDa type IV collagenase (Homo sapiens, UniProt P08253); assay: Dose Response validation of uHTS RPN11 inhibitor hits using a MMP-2 Fluorescence assay.; type: functional
[11] = biological target: Prothrombin (Bos taurus, UniProt P00735); assay: thrombin protease inhibitors – biochemical, fluorescence polarization, uHTS hits, dose response (AID 602369); type: functional
[12] = biological target: SUMO-activating enzyme (Homo sapiens, UniProt Q9UBT2); assay: blockers of SAE1/SAE2–UBC9 SUMO transfer – biochemical, HTRF, uHTS, primary screen (AID 2006); type: protein-complex assay
[13] = biological target: Tyrosyl-DNA phosphodiesterase 2 (Homo sapiens, UniProt O95551); assay: potency against TDP2 phosphodiesterase activity – biochemical, epi absorbance, IC50, dose response (AID 743297)
[14] = biological target: T2, Bcl-2-related protein A1 (Mus musculus, UniProt Q07440); type: functional;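 note: confirmatory dose–response counterscreen on Bfl-1, used to check hits from a UBC13 polyubiquitin inhibitor campaign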
T2 sequence (Q07440 whole entry): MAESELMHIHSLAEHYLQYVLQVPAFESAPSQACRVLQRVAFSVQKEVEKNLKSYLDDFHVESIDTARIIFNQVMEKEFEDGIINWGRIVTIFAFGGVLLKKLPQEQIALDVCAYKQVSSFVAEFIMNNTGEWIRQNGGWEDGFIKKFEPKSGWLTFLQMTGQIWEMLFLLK

[15] = biological target: T3, Ubiquitin-conjugating enzyme E2 N (Homo sapiens, UniProt P61088); type: functional
T3 sequence (P61088 whole entry): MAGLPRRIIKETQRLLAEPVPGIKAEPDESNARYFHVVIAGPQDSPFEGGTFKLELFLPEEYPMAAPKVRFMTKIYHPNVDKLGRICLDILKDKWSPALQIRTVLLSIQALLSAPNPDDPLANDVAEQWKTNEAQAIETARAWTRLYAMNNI

[16] = biological target: T4, Sentrin-specific protease 8 (Homo sapiens, UniProt Q96LD8); type: functional;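 note: kinetic enzyme assay of SENP8 cleaving a Nedd8 protein substrate, dose-response confirmation of screening hits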
T4 sequence (Q96LD8 whole entry): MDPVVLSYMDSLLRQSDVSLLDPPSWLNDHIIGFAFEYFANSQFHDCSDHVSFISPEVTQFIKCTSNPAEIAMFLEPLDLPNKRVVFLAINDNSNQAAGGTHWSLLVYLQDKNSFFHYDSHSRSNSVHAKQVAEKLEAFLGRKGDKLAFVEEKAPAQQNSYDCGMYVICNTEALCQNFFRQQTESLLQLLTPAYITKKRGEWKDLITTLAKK

[17] = biological target: Hepatocyte growth factor receptor (Homo sapiens, UniProt P08581); type: functional;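 note: kinase panel profiling across the kinome, with MET as the panel member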
[18] = biological target: Mitogen-activated protein kinase 14 (Homo sapiens, UniProt Q16539); type: functional;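 note: part of a kinome-wide panel, MAPK14 entry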
Chain of Mitogen-activated protein kinase 14 (Q16539 whole entry): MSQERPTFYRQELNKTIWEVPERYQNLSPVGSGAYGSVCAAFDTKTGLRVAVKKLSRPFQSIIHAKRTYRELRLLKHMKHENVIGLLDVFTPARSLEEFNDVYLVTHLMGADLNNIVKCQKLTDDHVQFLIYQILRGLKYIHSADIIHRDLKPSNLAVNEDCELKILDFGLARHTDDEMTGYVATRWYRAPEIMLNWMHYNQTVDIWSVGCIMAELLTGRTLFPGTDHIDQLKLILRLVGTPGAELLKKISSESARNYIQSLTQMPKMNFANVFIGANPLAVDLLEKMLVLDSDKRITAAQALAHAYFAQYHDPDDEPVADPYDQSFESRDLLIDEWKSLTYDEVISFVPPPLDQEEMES

Chain of SUMO-activating enzyme (Q9UBE0 whole entry): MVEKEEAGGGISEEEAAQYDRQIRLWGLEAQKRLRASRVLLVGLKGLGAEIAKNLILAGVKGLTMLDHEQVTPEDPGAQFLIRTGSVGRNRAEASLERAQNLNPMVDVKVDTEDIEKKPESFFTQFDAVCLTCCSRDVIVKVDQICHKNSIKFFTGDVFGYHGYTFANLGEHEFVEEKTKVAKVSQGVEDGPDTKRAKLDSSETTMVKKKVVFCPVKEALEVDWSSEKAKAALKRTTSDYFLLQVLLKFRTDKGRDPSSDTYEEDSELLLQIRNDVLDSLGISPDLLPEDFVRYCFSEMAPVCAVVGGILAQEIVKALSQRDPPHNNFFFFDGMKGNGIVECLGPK
Chain of SUMO-activating enzyme (Q9UBT2 whole entry): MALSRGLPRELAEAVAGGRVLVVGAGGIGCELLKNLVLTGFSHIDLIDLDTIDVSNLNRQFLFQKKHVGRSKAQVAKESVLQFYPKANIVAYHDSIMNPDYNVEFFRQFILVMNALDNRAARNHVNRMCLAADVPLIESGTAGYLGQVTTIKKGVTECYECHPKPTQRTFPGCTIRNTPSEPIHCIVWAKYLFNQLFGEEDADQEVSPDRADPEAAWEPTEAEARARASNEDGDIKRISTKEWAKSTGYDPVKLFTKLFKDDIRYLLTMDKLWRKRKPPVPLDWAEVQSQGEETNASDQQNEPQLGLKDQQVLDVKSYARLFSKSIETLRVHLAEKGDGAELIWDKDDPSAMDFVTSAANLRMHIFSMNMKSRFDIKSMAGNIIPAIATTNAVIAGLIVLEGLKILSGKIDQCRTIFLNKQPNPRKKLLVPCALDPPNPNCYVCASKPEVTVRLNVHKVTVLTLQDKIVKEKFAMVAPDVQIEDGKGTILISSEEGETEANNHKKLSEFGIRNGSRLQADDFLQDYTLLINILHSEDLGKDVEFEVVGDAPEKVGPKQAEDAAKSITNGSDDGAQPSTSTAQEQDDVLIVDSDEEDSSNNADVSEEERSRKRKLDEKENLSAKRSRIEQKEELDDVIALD
Chain of Homeodomain-interacting protein kinase 2 (Q9H2X6 whole entry): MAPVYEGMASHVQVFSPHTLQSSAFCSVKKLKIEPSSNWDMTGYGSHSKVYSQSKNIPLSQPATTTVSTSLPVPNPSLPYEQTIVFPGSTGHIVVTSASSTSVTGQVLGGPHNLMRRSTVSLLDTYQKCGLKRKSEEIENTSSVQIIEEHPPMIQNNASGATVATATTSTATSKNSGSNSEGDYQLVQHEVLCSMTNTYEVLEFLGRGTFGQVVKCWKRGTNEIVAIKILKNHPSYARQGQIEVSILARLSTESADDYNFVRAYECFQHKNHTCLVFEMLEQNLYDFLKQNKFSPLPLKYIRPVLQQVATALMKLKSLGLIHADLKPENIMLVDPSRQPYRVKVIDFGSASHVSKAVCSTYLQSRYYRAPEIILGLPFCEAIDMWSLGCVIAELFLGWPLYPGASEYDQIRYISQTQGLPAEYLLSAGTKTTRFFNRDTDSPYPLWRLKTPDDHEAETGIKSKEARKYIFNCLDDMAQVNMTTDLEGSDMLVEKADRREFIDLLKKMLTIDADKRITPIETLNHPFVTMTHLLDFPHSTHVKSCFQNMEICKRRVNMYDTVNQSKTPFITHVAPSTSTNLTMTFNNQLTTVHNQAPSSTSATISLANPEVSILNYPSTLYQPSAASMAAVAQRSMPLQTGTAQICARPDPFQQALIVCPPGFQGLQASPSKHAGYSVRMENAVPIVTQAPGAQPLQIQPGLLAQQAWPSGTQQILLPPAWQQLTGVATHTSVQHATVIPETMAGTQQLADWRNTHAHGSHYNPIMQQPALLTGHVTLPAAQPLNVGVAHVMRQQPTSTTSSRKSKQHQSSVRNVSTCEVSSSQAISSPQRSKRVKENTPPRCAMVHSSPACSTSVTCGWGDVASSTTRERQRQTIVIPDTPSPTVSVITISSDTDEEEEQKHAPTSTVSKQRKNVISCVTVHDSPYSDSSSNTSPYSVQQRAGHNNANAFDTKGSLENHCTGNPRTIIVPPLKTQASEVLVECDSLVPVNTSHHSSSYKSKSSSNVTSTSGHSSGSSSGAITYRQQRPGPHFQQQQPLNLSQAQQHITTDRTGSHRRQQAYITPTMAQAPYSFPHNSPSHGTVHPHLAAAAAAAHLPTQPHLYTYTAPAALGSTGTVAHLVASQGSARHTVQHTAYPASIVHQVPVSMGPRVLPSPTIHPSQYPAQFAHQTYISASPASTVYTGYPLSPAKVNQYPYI
Chain of 72 kDa type IV collagenase (P08253 whole entry): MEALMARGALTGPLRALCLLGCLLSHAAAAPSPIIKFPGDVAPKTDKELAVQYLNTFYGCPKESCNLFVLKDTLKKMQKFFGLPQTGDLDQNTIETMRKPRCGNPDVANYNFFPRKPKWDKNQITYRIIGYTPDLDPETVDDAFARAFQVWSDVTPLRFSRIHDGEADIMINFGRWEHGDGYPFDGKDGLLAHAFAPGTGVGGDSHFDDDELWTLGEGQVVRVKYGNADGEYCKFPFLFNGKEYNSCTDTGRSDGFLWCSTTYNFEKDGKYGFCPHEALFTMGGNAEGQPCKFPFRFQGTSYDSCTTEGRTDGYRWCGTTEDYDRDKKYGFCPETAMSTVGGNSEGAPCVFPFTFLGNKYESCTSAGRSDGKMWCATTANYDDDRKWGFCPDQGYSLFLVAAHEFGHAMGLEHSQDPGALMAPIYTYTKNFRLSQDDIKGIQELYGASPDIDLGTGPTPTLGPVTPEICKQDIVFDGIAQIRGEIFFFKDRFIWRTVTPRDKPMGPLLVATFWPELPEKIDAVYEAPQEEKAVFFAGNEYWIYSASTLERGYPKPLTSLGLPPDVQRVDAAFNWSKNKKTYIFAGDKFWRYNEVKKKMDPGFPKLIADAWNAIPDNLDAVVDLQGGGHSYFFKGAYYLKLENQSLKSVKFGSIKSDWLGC
Chain of Hepatocyte growth factor receptor (P08581 whole entry): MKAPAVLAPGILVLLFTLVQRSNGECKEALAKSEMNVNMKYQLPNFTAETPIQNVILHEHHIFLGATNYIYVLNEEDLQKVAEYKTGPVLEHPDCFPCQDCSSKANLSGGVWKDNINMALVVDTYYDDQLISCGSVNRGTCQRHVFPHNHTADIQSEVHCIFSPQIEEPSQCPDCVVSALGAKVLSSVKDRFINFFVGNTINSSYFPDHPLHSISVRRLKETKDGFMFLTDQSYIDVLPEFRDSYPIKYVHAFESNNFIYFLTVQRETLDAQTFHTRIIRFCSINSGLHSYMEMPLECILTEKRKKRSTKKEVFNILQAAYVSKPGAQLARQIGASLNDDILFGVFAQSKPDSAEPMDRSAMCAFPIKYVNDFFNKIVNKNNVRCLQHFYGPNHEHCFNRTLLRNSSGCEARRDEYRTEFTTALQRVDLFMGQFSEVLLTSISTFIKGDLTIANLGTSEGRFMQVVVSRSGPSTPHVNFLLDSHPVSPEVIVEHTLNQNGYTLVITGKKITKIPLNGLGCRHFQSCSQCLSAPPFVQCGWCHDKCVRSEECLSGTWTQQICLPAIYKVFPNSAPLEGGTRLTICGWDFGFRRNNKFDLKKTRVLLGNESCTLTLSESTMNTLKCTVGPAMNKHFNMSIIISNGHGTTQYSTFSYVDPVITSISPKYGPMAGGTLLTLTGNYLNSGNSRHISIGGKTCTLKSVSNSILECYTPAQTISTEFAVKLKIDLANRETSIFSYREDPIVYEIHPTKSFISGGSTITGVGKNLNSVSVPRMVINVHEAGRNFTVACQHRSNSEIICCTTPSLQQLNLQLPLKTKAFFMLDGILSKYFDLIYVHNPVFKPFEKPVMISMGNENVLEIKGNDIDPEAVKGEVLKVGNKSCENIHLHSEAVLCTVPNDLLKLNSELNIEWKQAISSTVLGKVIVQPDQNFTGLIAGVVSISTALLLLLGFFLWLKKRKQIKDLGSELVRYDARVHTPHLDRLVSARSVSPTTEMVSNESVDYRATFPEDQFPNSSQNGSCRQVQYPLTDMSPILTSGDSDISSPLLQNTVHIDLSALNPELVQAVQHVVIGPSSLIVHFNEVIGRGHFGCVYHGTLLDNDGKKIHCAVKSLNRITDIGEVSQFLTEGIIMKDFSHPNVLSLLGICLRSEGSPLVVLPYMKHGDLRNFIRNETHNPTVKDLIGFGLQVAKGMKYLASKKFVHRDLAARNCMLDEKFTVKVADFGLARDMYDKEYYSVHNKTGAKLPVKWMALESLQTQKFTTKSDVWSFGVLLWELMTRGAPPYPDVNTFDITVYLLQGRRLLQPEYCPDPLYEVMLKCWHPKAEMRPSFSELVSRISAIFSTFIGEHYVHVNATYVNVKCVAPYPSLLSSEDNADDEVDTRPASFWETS
Chain of Tyrosyl-DNA phosphodiesterase 2 (O95551 whole entry): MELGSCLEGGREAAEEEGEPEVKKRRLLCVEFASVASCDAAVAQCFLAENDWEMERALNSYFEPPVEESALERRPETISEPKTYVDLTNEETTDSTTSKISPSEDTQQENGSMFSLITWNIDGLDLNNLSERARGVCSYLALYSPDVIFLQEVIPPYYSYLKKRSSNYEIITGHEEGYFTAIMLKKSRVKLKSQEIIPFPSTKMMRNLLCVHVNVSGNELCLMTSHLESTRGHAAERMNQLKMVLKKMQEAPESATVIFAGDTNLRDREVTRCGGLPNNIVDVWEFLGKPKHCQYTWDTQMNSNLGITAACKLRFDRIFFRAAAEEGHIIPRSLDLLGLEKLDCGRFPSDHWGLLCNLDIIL

Ki [1]: > 1.58 µM (inactive) | Ki [2]: > 3.98 µM (inactive)
SMILES: O=C(Nc1cc(-c2c[nH]c3ncccc23)cc(Cl)n1)c1ccccc1

SMILES: CCN1C(=Cc2sc3ccccc3[n+]2C)C=Cc2cccc(C)c21
EC50 [3]: 0.142 µM (active) | CC50 [4]: 1.87 µM (active) | EC50 [5]: 0.054 µM (active) | EC50 [6]: < 0.1 µM (active) | AC50 [7]: 7.58 µM (active)

SMILES: O=C(N/N=C/c1c(O)ccc2ccccc12)c1[nH]ncc1Br
EC50 [8]: 7.88 µM (active) | EC50 [9]: > 100 µM (inactive) | IC50 [10]: > 100 µM (inactive) | IC50 [11]: 91.6 µM (active)

SMILES: O=C(Cc1ccccc1Cl)NC1(O)C(=O)c2ccccc2C1=O
IC50 [12]: 26 µM (active) | IC50 [13]: 11.5 µM (inactive)

SMILES: CNC[C@H](Cc1ccccc1)NC[C@@H](Cc1cccc2ccccc12)NCCc1ccc(C)cc1
IC50 [14]: > 20 µM (inactive) | IC50 [15]: 11.5 µM (active)

SMILES: Nc1nnc2c(n1)CCCC2
IC50 [16]: 2.98 µM (active)

Ki [17]: > 2.51 µM (inactive) | Ki [18]: > 3.98 µM (inactive)
SMILES: Nc1c(-c2ccc(NC(=O)Nc3cccc(C(F)(F)F)c3)cc2)cnc2c(-c3ccc4c(c3)OCO4)cnn12
